Assay results: publication PMC3229523, “Identification of Lactoferricin B Intracellular Targets Using an Escherichia coli Proteome Chip” (PLoS ONE, 2011)
“Also recorded” adds a separate entry of the source. Ends that are not written are not given here. * marks the point of attachment. Biotin = O=C1N[C@H]2[C@H](CS[C@H]2CCCCC(=O)*)N1

Assays:
E. coli K-12 MG1655 = assay: E. coli growth inhibition (growth curves, OD595); assay type: cell-based; details: 22.4 µM, approx. 10^7 CFU/ml, LB medium, 37°C with shaking, OD595 every 20 min for 7 h 20 min, PBS negative control, Figure 2
Description: The E. coli K-12 MG1655 strain was first inoculated into LB medium and incubated at 37°C with shaking for 16 h. After incubation, the culture was diluted to approximately 10^7 CFU/ml using LB medium. Then, 22.4 µM of N-terminal biotinylated LfcinB (Kelowna Inc.), LfcinB (Kelowna Inc.) or biotin (Thermo) were individually added to the diluted cultures in a 96-well plate. PBS was used as a negative control. Finally, each compound or PBS with E. coli was incubated at 37°C with shaking and the growth curves were observed by measuring the OD595 value every 20 min for 7 h 20 min in a microplate reader (Synergy 2, BioTek®).

[1] = tested on: E. coli K-12 proteins (E. coli proteome chip); assay: E. coli proteome chip assay; assay type: binding; details: 10 nM N-terminal biotinylated LfcinB, 1% BSA, room temperature, 1 h; ratio DyLight 649 to DyLight 549, ProCAT local cut-off; triplicate
Description: To fabricate the proteome chips, E. coli K-12 proteins were expressed and purified in a high-throughput fashion. The procedure was modified from Chen et al.. Briefly, E. coli protein expression clones fused with a 6×-His tag, provided by Dr. Mori, were first incubated with glass beads (Biospec Products Inc.) in 2× LB medium containing 30 µg/ml chloramphenicol in 96 DeepWell™ plates (Nunc) at 37°C overnight. The overnight cultures were then diluted with 2× LB that contains 30 µg/ml chloramphenicol to the OD595 value of 0.1. When the cells grew to an OD595 value of 0.7–0.9, 500 µM of isopropyl β-D-thiogalactoside (IPTG) was added to induce protein expression at 37°C for ∼3.5 h. The cultures were then harvested by centrifugation at 3220 g for 5 min at 4°C, and the pellets were stored at −80°C before purification. […]
For image processing of chip assay results, Genepix Pro 6.0 was used to align the protein spot of each individual protein and then all aligned protein image signals were exported as a text file. The text file was analyzed by ProCAT [17], a signal normalization method. The relative ability of LfcinB to bind to each protein was estimated by the ratio of the fluorescence intensity of LfcinB to the fluorescence intensity of an anti-His antibody after the normalization. […]

Compound: O=C(O)CCCC[C@@H]1SC[C@@H]2NC(=O)N[C@@H]21 [biotin, reference compound]
- growth curves / inhibition of E. coli growth (E. coli K-12 MG1655): had no influence on E. coli growth

Compound: biotinylated LfcinB: N-terminal biotinylated LfcinB (Kelowna Inc.), used as probe in chip assays (Biotin-FKCRRWQWRMKKLGAPSITCVRRAF; ends and bridges not checked)
- growth curves / inhibition of E. coli growth (E. coli K-12 MG1655): exhibited the same inhibition of E. coli growth; also recorded: exhibit the same antibacterial activity
- number of proteins selected as LfcinB-binding (top 5% of the E. coli proteome, membrane proteins ruled out) [1]: 153 proteins
